# Where two headings read alike, the source gives them in different places.
# Legend:
# [1] = tested on: IL3 production in mouse allogenic MLC; assay: suppression of IL3 production in mouse allogenic MLC; format: cell-based; settings: for inhibition at 0.01 µg/mL / inhibition at 0.1 µg/mL / inhibition at 1 µg/mL / inhibition at 10 µg/mL: Mus musculus, read-out: Suppression
# Procedure: (§1) The supernatant of mouse allogenic MLC and the supernatant of PHA-stimulated mouse spleen cells culture were prepared in the same manner as in Experimental Example 6.
# (§2) The IL3 activity in the supernatant described above was assayed as follows: IL3-dependent mouse cell line FDC-P2 cells were suspended in the RPMI1640 culture medium supplemented with 10% FCS to the concentration of 10^5 cells/ml, and 100 μl of the suspension was added to each well of 96-well microculture plates in which 100 μl per well of the two-fold serial dilutions of the supernatant described above had been placed. After culturing at 37° C. in an atmosphere of 5% carbon dioxide for 20 hours, 0.5 μCi/well of ^3 H-thymidine was added, and cultured for further 4 hours under the same conditions. After termination of the culture, the cells were harvested by a cell harvester, and the radioactivity incorporated into the cells was measured by a liquid scintillation counter. The IL3 activity was expressed in U/ml as the titer at the concentrations at which the amount of ^3 H-thymidine incorporated was 50% of the maximum.
# [2] = tested on: alloreactive cytotoxic T cells (EL4 target cells); assay: suppression of induction of alloreactive cytotoxic T cells in mouse allogenic MLC (51Cr release); format: cell-based
# Procedure: The spleen cells suspension, 0.5 ml, (2×10^7 cells/ml) of BALB/c mouse (H-2^d) prepared in the same way as in Experimental Example 1, 0.5 ml of a suspension of mitomycin C-treated C57BL/6 mouse (H-2^b) spleen cells (2×10^7 cell/ml) and 1.0 ml of the test substance were added to 24-well multidishes, and cultured at 37° C. in an atmosphere of 5% carbon dioxide for 6 days.
# After termination of the culture, the cells were harvested by centrifugation, and the concentration of the cell suspension was adjusted to 5×10^6 -6.25×10^5 cells/ml by using the RPMI1640 culture medium supplemented with 10% FCS, and used as the effector cell suspension.
# The target cells used were leukemia cells EL4 from the syngenic (H-2^b) C57BL/b mouse as used for preparation of the stimulator cells. By incubating 10^6 EL4 cells in the presence of 100 μCi of Na2^51 CrO4 (1 mCi/ml) at 37° C. for 1 hour to incorporate ^51 Cr into the cytoplasm. The cell were washed, adjusted to the concentration of 10^4 cells/ml and used as the target cell suspension.
# For the assay of the cytotoxic activity, 0.1 ml of the effector cell suspension and 0.1 ml of the target cell suspension were added to 96-well flat-bottomed plates, and cultured at 37° C. for 4 hours. The amount of ^51 Cr released into the supernatant was determined and the cytotoxic activity was calculated by the following formula. [formula]
# [3] = tested on: mouse spleen cells stimulated with pokeweed mitogen (PWM); assay: suppression of blastogenic response of mouse spleen cells by PWM; format: cell-based; settings: for inhibition at 0.1 µg/mL / inhibition at 0.01 µg/mL / inhibition at 1 µg/mL: Mus musculus, 76 h; for inhibition at 0.1 µg/mL: read-out: Suppression
# Procedure: The effect on the mouse blastogenic response of mouse spleen cells stimulated with phytohemagglutinin (PHA) or with pokeweed mitogen (PWM) was examined as follows:
# The spleen was resected from 5- to 8-week-old male […] BALB/c mice, and single cell suspension of spleen cells was prepared by using the RPMI1640 culture medium supplemented with 5% FCS. After hemolytic treatment, the concentration of the suspension was adjusted to 5×10^6 cells/ml by using the RPMI1640 culture medium supplemented with 10^-4 M 2-mercaptoethanol and 20% FCS, to which PHA or PWM was added. One hundred μl of the cell suspension was added to each well of 96-well microculture plates to which 100 μl per well of the test solution had been added (5×10^5 mouse spleen cells per well). After culturing at 37° C. in an atmosphere of 5% carbon dioxide for 72 hours, 0.5 μCi/well of ^3 H-thymidine was added and cultured under the same conditions for further 4 hours. After termination of the culture, the cells were harvested by a cell harvester, and the radioactivity incorporated into the cells was measured by a liquid scintillation counter, which was used as the index of blastogenic response of mouse spleen cells.
# PC-6 = assay: cytotoxicity to tumor cell line PC-6; format: cell-based, human
# Procedure: (§3) Cytotoxicity to human tumor cell lines was examined as follows:
# (§4) Cells of human cell lines, K562, MOLT4, U937, HL60, KATOIII, KB, PC-6, PC-14 and CCRF-CEM were separately suspended to the concentration of 2×10^5 cells/ml in the RPMI1640 culture medium supplemented with 20% FCS. Fifty μl of this suspension was added to each well of 96-well microculture plates to which 50 μl of the test solution had been added. After culturing at 37° C. in an atmosphere of 5% carbon dioxide for 72 hours, the absorbancy at 550 nm was measured in the same way as the colorimetry using MTT in Experimental Example 1, and the percent suppression was calculated in the same manner as in Experimental Example 14, which was used as the index of cytotoxicity.
# [4] = cytotoxicity to tumor cell line PC-6; format: cell-based, human; settings: human, pc-6 cells, read-out: Suppression
# Procedure: as §3, §4
# [5] = tested on: IL3 production in PHA-stimulated mouse spleen cells; assay: suppression of IL3 production in PHA-stimulated mouse spleen cells; format: cell-based; settings: for inhibition at 0.01 µg/mL / inhibition at 0.1 µg/mL / inhibition at 1 µg/mL / inhibition at 10 µg/mL: Mus musculus, read-out: Suppression
# Procedure: as §1, §2
# [6] = tested on: allo-reactive cytotoxic T cells (EL4 target cells); assay: suppression of allo-reactive cytotoxic T cells induced by immunization of mouse with allogenic cells; format: in vivo; settings: 0.1 mg/kg/day i.p., 6 times
# Procedure: Male BALB/c mice were immunized with spleen cells of C57BL/6 mice (5×10^7 cells/mouse, intraperitoneal administration), and ISP-I in Example 1 was administered intraperitoneally 6 times at the doses of 0.1 mg/kg/day from the next day of immunization. Eight days after immunization, the spleen was resected to prepare effector cells, with which the ^51 Cr release test was carried out as in Experimental Example 3, using EL4 cells as the target cells to measure the cytotoxic activity.
# [7] = 0.1 μg/ml, effector:target 25:1
# [8] = 0.1 μg/ml, effector:target 50:1
# [9] = 0.1 μg/ml, effector:target 100:1
smiles,measurement,setting,value
CCCCCCC(=O)CCCCCC/C=C/CC(O)C(O)C(N)(CO)C(=O)O (stereo not drawn) [Example 1],IL3 activity,[1]; 0.01 μg/ml,13.9 U/ml
same,IL3 activity,[1]; 0.1 μg/ml,12.1 U/ml
same,IL3 activity,[1]; 1 μg/ml,9.8 U/ml
same,IL3 activity,[1]; 10 μg/ml,< 2 U/ml
same,inhibition at 0.01 µg/mL,[1],62.2%
same,inhibition at 0.1 µg/mL,[1],67.1%
same,inhibition at 1 µg/mL,[1],73.4%
same,inhibition at 10 µg/mL,[1],> 95%
same,Amount of 51Cr release,"[2]; 0.01 μg/ml, effector:target 25:1",816 cpm
same,Amount of 51Cr release,"[2]; 0.01 μg/ml, effector:target 50:1",783 cpm
same,Amount of 51Cr release,"[2]; 0.01 μg/ml, effector:target 100:1",808 cpm
same,Amount of 51Cr release,[2]; [7],764 cpm
same,Amount of 51Cr release,[2]; [8],773 cpm
same,Amount of 51Cr release,[2]; [9],771 cpm
same,inhibition at 0.1 µg/mL,[3],73.2%
same,inhibition at 0.01 µg/mL,"[3]; PWM (1/100), 0.01 μg/ml",61%
same,inhibition at 1 µg/mL,"[3]; PWM (1/100), 1 μg/ml",84.5%
same,3H-thymidine uptake,"[3]; PWM (1/100), 0.01 μg/ml",13499 cpm
same,3H-thymidine uptake,"[3]; PWM (1/100), 0.1 μg/ml",9895 cpm
same,3H-thymidine uptake,"[3]; PWM (1/100), 1 μg/ml",6529 cpm
same,Absorbancy,PC-6; 0.01 μg/ml,0.244
same,Absorbancy,PC-6; 0.1 μg/ml,0.245
same,Absorbancy,PC-6; 1.0 μg/ml,0.209
same,Absorbancy,PC-6; 10.0 μg/ml,0.202
same,Absorbancy,PC-6; 100.0 μg/ml,0.000
same,cytotoxicity at 72 h,[4]; 0.1 μg/ml,9.9%
same,cytotoxicity at 72 h,[4]; 1.0 μg/ml,23.2%
same,cytotoxicity at 72 h,[4]; 100.0 μg/ml,100%
same,IL3 activity,[5]; 0.01 μg/ml,4.0 U/ml
same,IL3 activity,[5]; 0.1 μg/ml,< 2 U/ml
same,IL3 activity,[5]; 1 μg/ml,< 2 U/ml
same,IL3 activity,[5]; 10 μg/ml,< 2 U/ml
same,inhibition at 0.01 µg/mL,[5],76.6%
same,inhibition at 0.1 µg/mL,[5],> 90%
same,inhibition at 1 µg/mL,[5],> 90%
same,inhibition at 10 µg/mL,[5],> 90%
same,Amount of 51Cr release,[6]; effector:target 25:1,1046 cpm
same,Cytotoxic activity,[6]; effector:target 25:1,5%
same,Amount of 51Cr release,[6]; effector:target 50:1,1258 cpm
same,Cytotoxic activity,[6]; effector:target 50:1,8%
same,Amount of 51Cr release,[6]; effector:target 100:1,1543 cpm
same,Cytotoxic activity,[6]; effector:target 100:1,13%
CCCCCCC(=O)CCCCCC/C=C/CC1OC(=O)C(N)(CO)C1O (stereo not drawn) [Example 4],IL3 activity,[1]; 0.01 μg/ml,26.0 U/ml
same,IL3 activity,[1]; 0.1 μg/ml,16.0 U/ml
same,IL3 activity,[1]; 1 μg/ml,8.6 U/ml
same,IL3 activity,[1]; 10 μg/ml,6.1 U/ml
same,inhibition at 0.01 µg/mL,[1],29.3%
same,inhibition at 0.1 µg/mL,[1]; 0.1 μg/ml,56.5%
same,inhibition at 1 µg/mL,[1]; 1 μg/ml,76.6%
same,inhibition at 10 µg/mL,[1]; 10 μg/ml,83.4%
same,Amount of 51Cr release,[2]; [7],767 cpm
same,Cytotoxic activity,[2]; [7],0%
same,Amount of 51Cr release,[2]; [8],780 cpm
same,Cytotoxic activity,[2]; [8],0%
same,Amount of 51Cr release,[2]; [9],761 cpm
same,Cytotoxic activity,[2]; [9],0%
same,inhibition at 0.01 µg/mL,"[3]; PWM (1/100), 0.01 μg/ml",41.4%
same,inhibition at 0.1 µg/mL,"[3]; PWM (1/100), 0.1 μg/ml",75.1%
same,inhibition at 1 µg/mL,"[3]; PWM (1/100), 1 μg/ml",77.1%
same,3H-thymidine uptake,"[3]; PWM (1/100), 0.01 μg/ml",19335 cpm
same,3H-thymidine uptake,"[3]; PWM (1/100), 0.1 μg/ml",9325 cpm
same,3H-thymidine uptake,"[3]; PWM (1/100), 1 μg/ml",8712 cpm
same,Absorbancy,PC-6; 0.1 μg/ml,0.247
same,Absorbancy,PC-6; 1.0 μg/ml,0.273
same,Absorbancy,PC-6; 10.0 μg/ml,0.271
same,Absorbancy,PC-6; 100.0 μg/ml,0.014
same,cytotoxicity at 72 h,[4]; 0.1 μg/ml,15.1%
same,cytotoxicity at 72 h,[4]; 1.0 μg/ml,6.2%
same,cytotoxicity at 72 h,[4]; 10.0 μg/ml,6.9%
same,cytotoxicity at 72 h,[4]; 100.0 μg/ml,95.2%
same,IL3 activity,[5]; 0.01 μg/ml,9.1 U/ml
same,IL3 activity,[5]; 0.1 μg/ml,2.8 U/ml
same,IL3 activity,[5]; 1 μg/ml,2.3 U/ml
same,IL3 activity,[5]; 10 μg/ml,< 2 U/ml
same,inhibition at 0.01 µg/mL,[5]; 0.01 μg/ml,46.8%
same,inhibition at 0.1 µg/mL,[5]; 0.1 μg/ml,83.6%
same,inhibition at 1 µg/mL,[5]; 1 μg/ml,86.5%
same,inhibition at 10 µg/mL,[5]; 10 μg/ml,> 90%

# Source: patent US5219884A, “Immunosuppressant” (Taito Co., Ltd., priority 1990, dated 1993)
